According to US20220175675A1, “ENCAPSULATING MOLECULES IN FAT GLOBULES” (The Regents of the University of California, priority 2019, published 2022):

How the values were obtained:
[1] = Gastric stability of vitamin D3 in simulated gastric fluid (LC-MS); assay type: in vitro ADME; settings: 2 h, 37° C., pH 3, pepsin
Protocol: Degradation of VD3 under the simulated gastric conditions was performed on free VD3 and encapsulated VD3. The simulated gastric fluid (SGF) was prepared according to the method of Minekus et al. (2014). In summary, electrolyte solution was prepared in Milli-Q water at 1.25× of the final concentration and stored at 37° C. To prepare 10 mL solution to be used in the digestion procedure: 7.5 mL SGF, 6 mg pepsin solubilized in 1.6 mL SGF, 5 μL of 0.3 M CaCl2(H2O)2 prepared in water and filtered through a 0.22 μm PSE syringe filter. The pH value was corrected to reach 3, and if needed, water was added to reach 10mL (approximately […]). The solution was then placed in a 37° C. incubator to equilibrate. Cream separated at the end of the incubation period with VD3 was suspended in water at 8% w/v and allowed to briefly incubate at 37° C.
The separated cream (250 mg) containing VD3, obtained as described before, was added to 5 mL of SGF. For the digestion of free VD3 in methanol, 25 μL of 40 mg/mL solution was added to […] of SGF. Solutions were briefly purged with nitrogen and sealed securely. Simulated digestion was carried for 2h at 37° C. At the end of the incubation step, ethanolic pyrogallol solution (10 mL, 1% w/v) was added and vortexed vigorously. Potassium hydroxide (2 mL, 50%w/v) was then added and mixed. […]

[2] = Encapsulation of hydrophobic compounds into milk fat globules (loading capacity, encapsulation efficiency); assay type: physicochemical, bovine; settings: 10% v/v ethanol, 30 min
Protocol: Raw milk was procured from a local market and stored at 4° C. Milk was used for up to 4 days post purchase. MFGs were separated from raw milk using centrifugal separation following a modified version of the method by Gallier et al. (2010) (12). First, raw milk was diluted with Milli-Q water at 9:1 water to milk, and the solution was centrifuged at 3,000×g for 5 min using a fixed angle centrifuge rotor. Cream was then skimmed off the sides of the centrifuged tubes after discarding the aqueous phase. In order to remove more of the milk serum components, cream was reconstituted in water to reach 4% w/v, and subjected to another step of centrifugation at 3,000×g for 5 min Cream was collected as detailed prior, then reconstituted to 20% w/v in Milli-Q water. All separation steps were completed at room temperature.
Encapsulation of test compounds in MFGs was accomplished by mixing ethanolic stock solution of a compound with 20% w/v cream suspended in water. The mixture was gently inverted several times to mix, then allowed in incubate in the dark.
To test the effect of incubation temperature on the partitioning and encapsulation yield and efficiency, RA was added at 250 μM concentration and was allowed to incubate with MFGs for 30 min at 4, 22, and 40° C.
To quantify the amount of compound encapsulated in MFGs, cream was separated from ethanol-containing aqueous phase via centrifugal separation at 3,000 x g for 5 min. Cream was skimmed and added to methanol at 50 mg/mL and vortexed vigorously for 1 min, then centrifuged at 16,000×g for 10 min. Top layer of methanol was collected and absorbance was measured at appropriate wavelength for each compound. An absorbance blank was prepared following the same encapsulation and separation steps in the absence of compound. λmax in methanol (nm) for each compound is reported in Table 1.
Cream (20% w/v in Milli-Q water) that was separated following the steps in Example 2 was further separated via centrifugation at 3,000×g for 5 min. Fat content in cream was measured using a modified Folch method (13). An additional washing step was incorporated where the chloroform/water interface was washed with 1:1 water/methanol solution.

For `C=C1CC[C@H](O)C/C1=C/C=C1\CCC[C@]2(C)[C@@H]([C@H](C)CCCC(C)C)CC[C@@H]12` [Cholecalciferol], the “degradation/loss of VD3 in simulated gastric fluid” value ([1]; listed as free VD3) was “approximately 6%”, the “degradation/loss of VD3 in simulated gastric fluid” value ([1]; listed as un-encapsulated VD3) was “approximately 8%” and the “% Encapsulation efficiency” value ([2]; 50 μM added compound, room temperature) was 68.60 ± 6.30%. The “% Encapsulation efficiency” value ([2]; 100 μM added compound, room temperature) was 69.58 ± 6.44%, the “% Encapsulation efficiency” value ([2]; 150 μM added compound, room temperature) was 67.62 ± 3.67% and the “% Encapsulation efficiency” value ([2]; 200 μM added compound, room temperature) was 63.59 ± 1.43%. The “% Encapsulation efficiency” value ([2]; 250 μM added compound, room temperature) was 49.84 ± 3.74 %, the “% Encapsulation efficiency” value ([2]; 500 μM added compound, room temperature) was 45.25 ± 3.00 % and the “% Encapsulation efficiency” value ([2]; 1000 μM added compound, room temperature) was 24.77 ± 0.84 %. For the same compound, the “% Encapsulation efficiency” value ([2]; 1500 μM added compound, room temperature) was 28.92 ± 3.43 %, the “% Encapsulation efficiency” value ([2]; 2000 μM added compound, room temperature) was 19.66 ± 1.05 % and the “% Encapsulation efficiency” value ([2]; 2500 μM added compound, room temperature) was 19.22 ± 2.88 %. The “maximal loading capacity (LC)” value ([2]; maximal value over 50-2500 μM, room temperature) was 22.12 μg per gram of milk fat and the “encapsulation efficiency (EE %), maximal/overall value” ([2]; over tested concentrations) was 69%.
